PubChem BioAssay AID256 (DTP/NCI, 2004)
Toxic doses and inconclusive results are not listed.

System: CD2F1 mice, L1210 leukemia ip, survival T/C
Assay: NCI In Vivo Anticancer Drug Screen. Data for tumor model L1210 Leukemia (intraperitoneal) in CD2F1 (CDF1) mice
Conditions: endpoint: mean survival time, higher = longer survival
Outline: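 Vehicle-treated tumor-bearing mice served as controls (C) for compound-treated mice (T). Reported figure is T divided by C.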

[1] = dose: 100.0 mg/kg/injection, schedule: Q04DX003 (ip), vehicle: saline with Tween-80
[2] = dose: 200.0 mg/kg/injection, schedule: Q04DX003 (ip), vehicle: saline with Tween-80
[3] = dose: 400.0 mg/kg/injection, schedule: Q04DX003 (ip), vehicle: saline with Tween-80
[4] = dose: 75.0 mg/kg/injection, schedule: Q01DX001 (ip), vehicle: saline
[5] = dose: 150.0 mg/kg/injection, schedule: Q01DX001 (ip), vehicle: saline
[6] = dose: 200.0 mg/kg/injection, schedule: Q04DX003 (ip), vehicle: Klucel (hydroxypropylcellulose) (HPC)
[7] = dose: 400.0 mg/kg/injection, schedule: Q04DX003 (ip), vehicle: Klucel (hydroxypropylcellulose) (HPC)
[8] = dose: 100.0 mg/kg/injection, schedule: Q01DX009 (ip), vehicle: saline with Tween-80
[9] = dose: 200.0 mg/kg/injection, schedule: Q01DX009 (ip), vehicle: saline with Tween-80
[10] = dose: 400.0 mg/kg/injection, schedule: Q01DX009 (ip), vehicle: saline with Tween-80
[11] = dose: 100.0 mg/kg/injection, schedule: Q01DX001 (ip), vehicle: saline
[12] = dose: 400.0 mg/kg/injection, schedule: Q01DX009 (ip), vehicle: saline

With `COC1C(O)C(C)OC(OC2C(Oc3cccc4c(O)c5c(=O)oc6ccc(C)c7c(=O)oc(c34)c5c67)OC(C)C(O)C2O)C1O` (stereo unspecified) the T/C (dose: 5.0 mg/kg/injection, schedule: Q01DX009 (ip), vehicle: saline with Tween-80) was 116 % of control, the T/C (dose: 10.0 mg/kg/injection, schedule: Q01DX009 (ip), vehicle: saline with Tween-80) was 115 % of control and the T/C (dose: 20.0 mg/kg/injection, schedule: Q01DX009 (ip), vehicle: saline with Tween-80) was 116 % of control. The T/C (dose: 80.0 mg/kg/injection, schedule: Q01DX009 (ip), vehicle: saline with Tween-80) was 123 % of control.
`N/C(=N\N=C\c1c(F)c(F)c(F)c(F)c1F)N[N+](=O)[O-]` was tested, and the T/C [1] was 106 % of control, the T/C [2] was 98 % of control and the T/C [3] was 96 % of control.
`CN(C)CC1CCCCCC(Br)C1O` (stereo unspecified) was tested, and the T/C [4] was 100 % of control and the T/C [5] was 94 % of control.
`CC(C)[S-].CC(C)[S-].[Pt+2].c1ccc([PH+](c2ccccc2)c2ccccc2)cc1.c1ccc([PH+](c2ccccc2)c2ccccc2)cc1` was tested, and the T/C (dose: 3.13 mg/kg/injection, schedule: Q04DX003 (sc), vehicle: distilled water + Tween-80) was 96 % of control, the T/C (dose: 6.25 mg/kg/injection, schedule: Q04DX003 (sc), vehicle: distilled water + Tween-80) was 100 % of control and the T/C (dose: 12.5 mg/kg/injection, schedule: Q04DX003 (sc), vehicle: distilled water + Tween-80) was 92 % of control. For the same compound, the T/C (dose: 50.0 mg/kg/injection, schedule: Q04DX003 (sc), vehicle: distilled water + Tween-80) was 87 % of control and the T/C (dose: 200.0 mg/kg/injection, schedule: Q04DX003 (sc), vehicle: distilled water + Tween-80) was 89 % of control.
For `CNC(=S)N1CCSN1NC`, the T/C (dose: 100.0 mg/kg/injection, schedule: Q04DX002 (ip), vehicle: saline with Tween-80) was 91 % of control, the T/C (dose: 200.0 mg/kg/injection, schedule: Q04DX002 (ip), vehicle: saline with Tween-80) was 95 % of control and the T/C (dose: 400.0 mg/kg/injection, schedule: Q04DX002 (ip), vehicle: saline with Tween-80) was 86 % of control.
With `Cn1c(=O)c2c(nc(-c3ccccc3)n2O)n(C)c1=O` the T/C (dose: 12.5 mg/kg/injection, schedule: Q01DX005 (ip), vehicle: other) was 97 % of control, the T/C (dose: 25.0 mg/kg/injection, schedule: Q01DX005 (ip), vehicle: other) was 105 % of control and the T/C (dose: 50.0 mg/kg/injection, schedule: Q01DX005 (ip), vehicle: other) was 92 % of control. The T/C (dose: 100.0 mg/kg/injection, schedule: Q01DX005 (ip), vehicle: other) was 97 % of control.
In the case of `COC(=O)c1ccccc1NC1=NCCO1`, the T/C [6] is reported as 97 % of control and the T/C [7] is reported as 86 % of control.
`CN(C)Cc1ccccc1` was tested, and the T/C (dose: 100.0 mg/kg/injection, schedule: Q01DX001 (ip), vehicle: saline with Tween-80) was 104 % of control and the T/C (dose: 200.0 mg/kg/injection, schedule: Q01DX001 (ip), vehicle: saline with Tween-80) was 110 % of control.
With `CS(=O)(=O)c1cnnc2ccccc12` the T/C [1] was 98 % of control, the T/C [2] was 93 % of control and the T/C [3] was 86 % of control.
`CCCC/C=C\C(=O)OC` was tested, and the T/C (dose: 50.0 mg/kg/injection, schedule: Q01DX009 (ip), vehicle: saline with Tween-80) was 101 % of control, the T/C [8] was 104 % of control and the T/C [9] was 101 % of control.
With `COc1ccc(C(C)=O)cc1C=O` the T/C [8] was 87 % of control, the T/C [1] was 97 % of control and the T/C [9] was 92 % of control. For the same compound, the T/C [2] was 104 % of control, the T/C [10] was 90 % of control and the T/C [3] was 102 % of control.
For `COC(OC(CO)C(O)S(=O)(=O)O)C(O)S(=O)(=O)O` (stereo unspecified), the T/C (dose: 50.0 mg/kg/injection, schedule: Q01DX001 (ip), vehicle: saline) was 103 % of control, the T/C (dose: 50.0 mg/kg/injection, schedule: Q01DX009 (ip), vehicle: saline) was 124 % of control and the T/C (dose: 50.0 mg/kg/injection, schedule: Q01DX009 (sc), vehicle: saline) was 104 % of control. For the same compound, the T/C (dose: 50.0 mg/kg/injection, schedule: Q03HX016 (ip), vehicle: saline) was 115 % of control, the T/C [11] was 118 % of control and the T/C (dose: 100.0 mg/kg/injection, schedule: Q01DX009 (oral), vehicle: saline) was 105 % of control. The T/C (dose: 100.0 mg/kg/injection, schedule: Q01DX009 (sc), vehicle: saline) was 101 % of control, the T/C (dose: 100.0 mg/kg/injection, schedule: Q03HX008 (ip), vehicle: saline) was 160 % of control and the T/C (dose: 100.0 mg/kg/injection, schedule: Q03HX016 (ip), vehicle: saline) was 153 % of control. For the same compound, the T/C (dose: 100.0 mg/kg/injection, schedule: Q08DX002 (ip), vehicle: saline) was 109 % of control, the T/C (dose: 200.0 mg/kg/injection, schedule: Q01DX009 (oral), vehicle: saline) was 92 % of control and the T/C (dose: 200.0 mg/kg/injection, schedule: Q01DX009 (sc), vehicle: saline) was 101 % of control. The T/C (dose: 200.0 mg/kg/injection, schedule: Q08DX002 (ip), vehicle: saline) was 120 % of control, the T/C [12] was 168 % of control and the T/C (dose: 400.0 mg/kg/injection, schedule: Q01DX009 (oral), vehicle: saline) was 94 % of control. For the same compound, the T/C (dose: 400.0 mg/kg/injection, schedule: Q01DX009 (sc), vehicle: saline) was 106 % of control, the T/C (dose: 800.0 mg/kg/injection, schedule: Q01DX009 (oral), vehicle: saline) was 94 % of control and the T/C (dose: 800.0 mg/kg/injection, schedule: Q04DX003 (ip), vehicle: saline) was 178 % of control.
`O=C(Nc1ccc(Oc2ccc(Cl)c(Cl)c2)c(Cl)c1)Nc1cc(Cl)c(Cl)cc1S(=O)(=O)O` was tested, and the T/C (dose: 100.0 mg/kg/injection, schedule: Q01DX001 (ip), vehicle: saline sonified) was 96 % of control, the T/C [8] was 97 % of control and the T/C (dose: 200.0 mg/kg/injection, schedule: Q01DX001 (ip), vehicle: saline sonified) was 93 % of control. The T/C (dose: 400.0 mg/kg/injection, schedule: Q01DX001 (ip), vehicle: saline sonified) was 96 % of control.
`CC(=O)OC1CCC2(C)C(CCC3(C)C2CC=C2C4CC(C)(C)CCC4(C)CCC23C)C1(C)C` (stereo unspecified) was tested, and the T/C [11] was 101 % of control, the T/C (dose: 200.0 mg/kg/injection, schedule: Q01DX001 (ip), vehicle: saline) was 101 % of control and the T/C (dose: 400.0 mg/kg/injection, schedule: Q01DX001 (ip), vehicle: saline) was 101 % of control.
`O=c1cc(-c2ccccc2)ss1` was tested, and the T/C (dose: 100.0 mg/kg/injection, schedule: Q04DX003 (ip), vehicle: Klucel (hydroxypropylcellulose) (HPC)) was 104 % of control, the T/C [6] was 100 % of control and the T/C [7] was 105 % of control.
In the case of `OCC12OCC(O1)C(O)C(O)C2O` (stereo unspecified), the T/C (dose: 100.0 mg/kg/injection, schedule: Q01DX009 (ip), vehicle: saline) is reported as 97 % of control, the T/C (dose: 200.0 mg/kg/injection, schedule: Q01DX009 (ip), vehicle: saline) is reported as 103 % of control and the T/C [12] is reported as 98 % of control.
In the case of `Cc1ccc2c(c1)CC(C)(C)O2`, the T/C (dose: 50.0 mg/kg/injection, schedule: Q01DX001 (ip), vehicle: Klucel (hydroxypropylcellulose) (HPC)) is reported as 102 % of control, the T/C (dose: 100.0 mg/kg/injection, schedule: Q01DX001 (ip), vehicle: Klucel (hydroxypropylcellulose) (HPC)) is reported as 93 % of control and the T/C (dose: 200.0 mg/kg/injection, schedule: Q01DX001 (ip), vehicle: Klucel (hydroxypropylcellulose) (HPC)) is reported as 102 % of control.
`CC(CCCOS(C)(=O)=O)OS(C)(=O)=O` (stereo unspecified) was tested, and the T/C (dose: 25.0 mg/kg/injection, schedule: Q04DX002 (ip), vehicle: Klucel (hydroxypropylcellulose) (HPC)) was 105 % of control, the T/C (dose: 50.0 mg/kg/injection, schedule: Q04DX002 (ip), vehicle: Klucel (hydroxypropylcellulose) (HPC)) was 108 % of control and the T/C (dose: 100.0 mg/kg/injection, schedule: Q04DX002 (ip), vehicle: Klucel (hydroxypropylcellulose) (HPC)) was 94 % of control.
With `COc1ccc(CCNC(=O)c2ccc(OC)c(OC)c2)cc1OC` the T/C (dose: 12.5 mg/kg/injection, schedule: Q01DX009 (ip), vehicle: other) was 104 % of control, the T/C (dose: 25.0 mg/kg/injection, schedule: Q01DX009 (ip), vehicle: other) was 90 % of control and the T/C (dose: 50.0 mg/kg/injection, schedule: Q01DX009 (ip), vehicle: other) was 103 % of control. For the same compound, the T/C (dose: 100.0 mg/kg/injection, schedule: Q01DX009 (ip), vehicle: other) was 98 % of control and the T/C (dose: 200.0 mg/kg/injection, schedule: Q01DX009 (ip), vehicle: other) was 97 % of control.
In the case of `O=C(O)CCCCCc1ccccc1`, the T/C [8] is reported as 96 % of control, the T/C [1] is reported as 102 % of control and the T/C [9] is reported as 95 % of control. For the same compound, the T/C [2] was 91 % of control, the T/C [10] was 101 % of control and the T/C [3] was 101 % of control.
In the case of `CCCc1nc(/N=N/N(C)C)c(C(N)=O)[nH]1`, the T/C [4] is reported as 114 % of control, the T/C [5] is reported as 120 % of control and the T/C (dose: 300.0 mg/kg/injection, schedule: Q01DX001 (ip), vehicle: saline) is reported as 122 % of control.
In the case of `COC(=O)NC1=Nc2ccccc2-c2ccccc2N1`, the T/C [1] is reported as 101 % of control, the T/C [2] is reported as 96 % of control and the T/C [3] is reported as 96 % of control.
